For 13 compounds, IC50 results are on record in US20230406885A1, “CYCLIC PEPTIDES FOR TRAPPING INTERLEUKIN-1 BETA” (MERCK SHARP & DOHME LLC, priority 2022, published 2023).

pIC50: −log10 of the molar value. *1 amine or outer side, *2 acyl side, *3 side chain or, on linkers, in order; H or OH if unused. Where a SMILES comes first, the peptide text is derived from it. [ ]: non-standard residue; d: D form. Ala(piperidin-4-yl) = O=C([C@H](CC1CCN([*:3])CC1)N[*:1])[*:2]; Trp(βS-Me,4-F) = C[C@@H](c1c[nH]c2cccc(F)c12)[C@H](N)C(=O)O; Bip(4'-COOH) = N[C@@H](Cc1ccc(-c2ccc(C(=O)O)cc2)cc1)C(=O)O; Phe(4-COOH) = N[C@@H](Cc1ccc(C(=O)O)cc1)C(=O)O; h3Pal(5-CN) = N#Cc1cncc(CC[C@H](N)C(=O)O)c1; Pro(4R-NH2) = N[C@H]1CN[C@H](C(=O)O)C1; X7 = O=C([C@H](CCN1CCOCC1)N[*:1])[*:2]; AEF = NCCOc1ccc(C[C@H](N)C(=O)O)cc1; hTyr = N[C@@H](CCc1ccc(O)cc1)C(=O)O; hPhe = N[C@@H](CCc1ccccc1)C(=O)O; dOrn = NCCC[C@@H](N)C(=O)O; dDab = NCC[C@@H](N)C(=O)O; dNMeA = CN[C@H](C)C(=O)O; Dab = NCC[C@H](N)C(=O)O

Usually pIC50 stands for −log10 of the IC50, conventionally taken in molar units.

The target in the first data set is T1, Recombinant human IL-1β (Homo sapiens, UniProt P01584).
T1 construct: purchased BioLegend 579404
T1 sequence (P01584 117-269): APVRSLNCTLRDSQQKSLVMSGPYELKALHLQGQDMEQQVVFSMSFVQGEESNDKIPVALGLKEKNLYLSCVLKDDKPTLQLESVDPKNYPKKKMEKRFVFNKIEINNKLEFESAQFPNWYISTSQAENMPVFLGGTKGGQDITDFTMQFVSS
The experiment in a line: IL-6 assay in MRC5 cells: inhibition of IL-1β induced IL-6 secretion (AlphaLISA). It is filed as cell-based.
Details: not given
In short, it runs like this: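 IL-1β at 2×EC80 in seeding medium (EMEM, 0.025% BSA) preincubated 1 h at ambient temperature with compound, then 3000 MRC5 cells/well added and incubated overnight at 37 °C, 5% CO2. IL-6 in conditioned medium quantified by AlphaLISA; IC50 from 4-parameter logistic fit.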
A general note: Alpha assays give light when donor and acceptor beads are brought close together.
Take `CC(=O)NCCOc1ccc(C[C@@H]2NC(=O)[C@H](Cc3ccc(OCCN)cc3)NC(=O)[C@@H](C)NC(=O)[C@H](CC(C)C)NC(=O)[C@H](Cc3c[nH]c4ccccc34)NC(=O)[C@H](Cc3ccc(-c4ccc(C(=O)O)cc4)cc3)NC(=O)CNC(=O)[C@@H](C)N(C)C(=O)[C@H](CC(=O)O)NC(=O)[C@H]([C@@H](C)c3c[nH]c4cccc(F)c34)NC(=O)[C@@H]3C[C@@H](N)CN3C(=O)CNC(=O)[C@H](Cc3ccc(C(=O)O)cc3)NC(=O)[C@H](Cc3c[nH]c4ccccc34)NC2=O)cc1` [Example 164] (cyclo([AEF][AEF](Ac)W[Phe(4-COOH)]G[Pro(4R-NH2)][Trp(βS-Me,4-F)]D[dNMeA]G[Bip(4'-COOH)]WL[dA])): the pIC50 is 9.34.

The same data set, now with this note: inhibition of IL-1β induced IL-6 secretion in MRC5 cells; read-out: MRC5 IC50.
In the case of `CC(=O)NCCOc1ccc(C[C@@H]2NC(=O)[C@H](CCc3cncc(C#N)c3)NC(=O)[C@@H](C)NC(=O)[C@H](CC(C)C)NC(=O)[C@H](CCCCN)NC(=O)[C@H](Cc3ccc(-c4ccc(C(=O)O)cc4)cc3)NC(=O)CNC(=O)[C@@H](C)N(C)C(=O)[C@H](CC(=O)O)NC(=O)[C@H]([C@@H](C)c3c[nH]c4cccc(F)c34)NC(=O)[C@@H]3C[C@@H](N)CN3C(=O)CNC(=O)[C@H](Cc3ccc(C(=O)O)cc3)NC(=O)[C@H](Cc3c[nH]c4ccccc34)NC2=O)cc1` [Example 158] (cyclo([AEF](Ac)W[Phe(4-COOH)]G[Pro(4R-NH2)][Trp(βS-Me,4-F)]D[dNMeA]G[Bip(4'-COOH)]KL[dA][h3Pal(5-CN)])), the negative-log IC50 (pIC50) is 10.59.
Turning to `CC(=O)NCCOc1ccc(C[C@@H]2NC(=O)[C@H](CCc3ccc(O)cc3)NC(=O)[C@@H](C)NC(=O)[C@H](CC(C)C)NC(=O)[C@H](CCCCN)NC(=O)[C@H](Cc3ccc(-c4ccc(C(=O)O)cc4)cc3)NC(=O)CNC(=O)[C@@H](C)N(C)C(=O)[C@H](CC(=O)O)NC(=O)[C@H]([C@@H](C)c3c[nH]c4cccc(F)c34)NC(=O)[C@@H]3C[C@@H](N)CN3C(=O)CNC(=O)[C@H](Cc3ccc(C(=O)O)cc3)NC(=O)[C@H](Cc3c[nH]c4ccccc34)NC2=O)cc1` [Example 159] (cyclo([AEF](Ac)W[Phe(4-COOH)]G[Pro(4R-NH2)][Trp(βS-Me,4-F)]D[dNMeA]G[Bip(4'-COOH)]KL[dA][hTyr])), the pIC50 was 9.93.
Turning to `CC(=O)NCCOc1ccc(C[C@@H]2NC(=O)[C@H](CCc3ccc(O)cc3)NC(=O)[C@@H](CCN)NC(=O)[C@H](CC(C)C)NC(=O)[C@H](CCCCN)NC(=O)[C@H](Cc3ccc(-c4ccc(C(=O)O)cc4)cc3)NC(=O)CNC(=O)[C@@H](C)N(C)C(=O)[C@H](CC(=O)O)NC(=O)[C@H]([C@@H](C)c3c[nH]c4cccc(F)c34)NC(=O)[C@@H]3C[C@@H](N)CN3C(=O)CNC(=O)[C@H](Cc3ccc(C(=O)O)cc3)NC(=O)[C@H](Cc3c[nH]c4ccccc34)NC2=O)cc1` [Example 160] (cyclo([AEF](Ac)W[Phe(4-COOH)]G[Pro(4R-NH2)][Trp(βS-Me,4-F)]D[dNMeA]G[Bip(4'-COOH)]KL[dDab][hTyr])), the negative-log IC50 (pIC50) was 9.28.
The same measure, in the same setting: next, `CC(=O)NCCOc1ccc(C[C@@H]2NC(=O)[C@H](CCc3ccc(O)cc3)NC(=O)[C@@H](CO)NC(=O)[C@H](CC(C)C)NC(=O)[C@H](CCCCN)NC(=O)[C@H](Cc3ccc(-c4ccc(C(=O)O)cc4)cc3)NC(=O)CNC(=O)[C@@H](C)N(C)C(=O)[C@H](CC(=O)O)NC(=O)[C@H]([C@@H](C)c3c[nH]c4cccc(F)c34)NC(=O)[C@@H]3C[C@@H](N)CN3C(=O)CNC(=O)[C@H](Cc3ccc(C(=O)O)cc3)NC(=O)[C@H](Cc3c[nH]c4ccccc34)NC2=O)cc1` [Example 161] (cyclo([AEF](Ac)W[Phe(4-COOH)]G[Pro(4R-NH2)][Trp(βS-Me,4-F)]D[dNMeA]G[Bip(4'-COOH)]KL[dS][hTyr])): 9.32; `CC(=O)NCCOc1ccc(C[C@@H]2NC(=O)CNC(=O)[C@@H](C)NC(=O)[C@H](CCN3CCOCC3)NC(=O)[C@H](Cc3c[nH]c4ccccc34)NC(=O)[C@H](Cc3ccc(-c4ccc(C(=O)O)cc4)cc3)NC(=O)CNC(=O)[C@@H](C)N(C)C(=O)[C@H](CC(=O)O)NC(=O)[C@H]([C@@H](C)c3c[nH]c4cccc(F)c34)NC(=O)[C@@H]3C[C@@H](N)CN3C(=O)CNC(=O)[C@H](Cc3ccc(C(=O)O)cc3)NC(=O)[C@H](Cc3c[nH]c4ccccc34)NC2=O)cc1` [Example 162] (cyclo([AEF](Ac)W[Phe(4-COOH)]G[Pro(4R-NH2)][Trp(βS-Me,4-F)]D[dNMeA]G[Bip(4'-COOH)]W[X7][dA]G)): 9.13; `CC(=O)NCCOc1ccc(C[C@@H]2NC(=O)[C@H](CCc3ccccc3)NC(=O)[C@@H](C)NC(=O)[C@H](CCN)NC(=O)[C@H](Cc3c[nH]c4ccccc34)NC(=O)[C@H](Cc3ccc(-c4ccc(C(=O)O)cc4)cc3)NC(=O)CNC(=O)[C@@H](C)N(C)C(=O)[C@H](CC(=O)O)NC(=O)[C@H]([C@@H](C)c3c[nH]c4cccc(F)c34)NC(=O)[C@@H]3C[C@@H](N)CN3C(=O)CNC(=O)[C@H](Cc3ccc(C(=O)O)cc3)NC(=O)[C@H](Cc3c[nH]c4ccccc34)NC2=O)cc1` [Example 163] (cyclo([AEF](Ac)W[Phe(4-COOH)]G[Pro(4R-NH2)][Trp(βS-Me,4-F)]D[dNMeA]G[Bip(4'-COOH)]W[Dab][dA][hPhe])): 9.81.
The same measure, in the same setting: next, `CC(=O)NCCOc1ccc(C[C@@H]2NC(=O)[C@H](CC3CCNCC3)NC(=O)[C@@H](C)NC(=O)[C@H](CC(C)C)NC(=O)[C@H](Cc3c[nH]c4ccccc34)NC(=O)[C@H](Cc3ccc(-c4ccc(C(=O)O)cc4)cc3)NC(=O)CNC(=O)[C@@H](C)N(C)C(=O)[C@H](CC(=O)O)NC(=O)[C@H]([C@@H](C)c3c[nH]c4cccc(F)c34)NC(=O)[C@@H]3C[C@@H](N)CN3C(=O)CNC(=O)[C@H](Cc3ccc(C(=O)O)cc3)NC(=O)[C@H](Cc3c[nH]c4ccccc34)NC2=O)cc1` [Example 165] (cyclo([AEF](Ac)W[Phe(4-COOH)]G[Pro(4R-NH2)][Trp(βS-Me,4-F)]D[dNMeA]G[Bip(4'-COOH)]WL[dA][Ala(piperidin-4-yl)])): 9.11; `CC(=O)NCCOc1ccc(C[C@@H]2NC(=O)[C@H](CCc3ccccc3)NC(=O)[C@@H](C)NC(=O)[C@H](CC(C)C)NC(=O)[C@H](Cc3c[nH]c4ccccc34)NC(=O)[C@H](Cc3ccc(-c4ccc(C(=O)O)cc4)cc3)NC(=O)CNC(=O)[C@@H](C)N(C)C(=O)[C@H](CC(=O)O)NC(=O)[C@H]([C@@H](C)c3c[nH]c4cccc(F)c34)NC(=O)[C@@H]3C[C@@H](N)CN3C(=O)CNC(=O)[C@H](Cc3ccc(C(=O)O)cc3)NC(=O)[C@H](Cc3c[nH]c4ccccc34)NC2=O)cc1` [Example 166] (cyclo([AEF](Ac)W[Phe(4-COOH)]G[Pro(4R-NH2)][Trp(βS-Me,4-F)]D[dNMeA]G[Bip(4'-COOH)]WL[dA][hPhe])): 9.83; `CC(=O)NCCOc1ccc(C[C@@H]2NC(=O)[C@H](CCc3ccc(O)cc3)NC(=O)[C@@H](C)NC(=O)[C@H](CC(C)C)NC(=O)[C@H](Cc3c[nH]c4ccccc34)NC(=O)[C@H](Cc3ccc(-c4ccc(C(=O)O)cc4)cc3)NC(=O)CNC(=O)[C@@H](C)N(C)C(=O)[C@H](CC(=O)O)NC(=O)[C@H]([C@@H](C)c3c[nH]c4cccc(F)c34)NC(=O)[C@@H]3C[C@@H](N)CN3C(=O)CNC(=O)[C@H](Cc3ccc(C(=O)O)cc3)NC(=O)[C@H](Cc3c[nH]c4ccccc34)NC2=O)cc1` [Example 167] (cyclo([AEF](Ac)W[Phe(4-COOH)]G[Pro(4R-NH2)][Trp(βS-Me,4-F)]D[dNMeA]G[Bip(4'-COOH)]WL[dA][hTyr])): 9.87.
Still for that read-out and setting: in the case of `CC(=O)NCCOc1ccc(C[C@@H]2NC(=O)[C@H](CCc3ccc(O)cc3)NC(=O)[C@@H](CCN)NC(=O)[C@H](CC(C)C)NC(=O)[C@H](Cc3c[nH]c4ccccc34)NC(=O)[C@H](Cc3ccc(-c4ccc(C(=O)O)cc4)cc3)NC(=O)CNC(=O)[C@@H](C)N(C)C(=O)[C@H](CC(=O)O)NC(=O)[C@H]([C@@H](C)c3c[nH]c4cccc(F)c34)NC(=O)[C@@H]3C[C@@H](N)CN3C(=O)CNC(=O)[C@H](Cc3ccc(C(=O)O)cc3)NC(=O)[C@H](Cc3c[nH]c4ccccc34)NC2=O)cc1` [Example 168] (cyclo([AEF](Ac)W[Phe(4-COOH)]G[Pro(4R-NH2)][Trp(βS-Me,4-F)]D[dNMeA]G[Bip(4'-COOH)]WL[dDab][hTyr])) it was 10.07.
On to `CC(=O)NCCOc1ccc(C[C@@H]2NC(=O)[C@H](CCc3ccc(O)cc3)NC(=O)[C@@H](CCCCN)NC(=O)[C@H](CC(C)C)NC(=O)[C@H](Cc3c[nH]c4ccccc34)NC(=O)[C@H](Cc3ccc(-c4ccc(C(=O)O)cc4)cc3)NC(=O)CNC(=O)[C@@H](C)N(C)C(=O)[C@H](CC(=O)O)NC(=O)[C@H]([C@@H](C)c3c[nH]c4cccc(F)c34)NC(=O)[C@@H]3C[C@@H](N)CN3C(=O)CNC(=O)[C@H](Cc3ccc(C(=O)O)cc3)NC(=O)[C@H](Cc3c[nH]c4ccccc34)NC2=O)cc1` [Example 169] (cyclo([AEF](Ac)W[Phe(4-COOH)]G[Pro(4R-NH2)][Trp(βS-Me,4-F)]D[dNMeA]G[Bip(4'-COOH)]WL[dK][hTyr])), for which the pIC50 was 9.95.
As to `CC(=O)NCCOc1ccc(C[C@@H]2NC(=O)[C@H](CCc3ccc(O)cc3)NC(=O)[C@@H](CCCN)NC(=O)[C@H](CC(C)C)NC(=O)[C@H](Cc3c[nH]c4ccccc34)NC(=O)[C@H](Cc3ccc(-c4ccc(C(=O)O)cc4)cc3)NC(=O)CNC(=O)[C@@H](C)N(C)C(=O)[C@H](CC(=O)O)NC(=O)[C@H]([C@@H](C)c3c[nH]c4cccc(F)c34)NC(=O)[C@@H]3C[C@@H](N)CN3C(=O)CNC(=O)[C@H](Cc3ccc(C(=O)O)cc3)NC(=O)[C@H](Cc3c[nH]c4ccccc34)NC2=O)cc1` [Example 170] (cyclo([AEF](Ac)W[Phe(4-COOH)]G[Pro(4R-NH2)][Trp(βS-Me,4-F)]D[dNMeA]G[Bip(4'-COOH)]WL[dOrn][hTyr])), the pIC50 was 10.01.
